From patent publication US9861735B2, “Extracorporeal perfusion apparatus” (Fresenius Medical Care Deutschland GmbH, priority 2012, dated 2018)
Where “and” joins values, the source holds several entries; their conditions need not be identical. Identical values can stand only once.

Key:
[1] = offset at least in part by the necessary higher dosing; cited from earlier work
[2] = tested on: LPS Pseudomonas aeruginosa; assay: Endotoxin batch (batch test I), LAL test, LPS from Pseudomonas aeruginosa in plasma; type: biochemical; conditions: for LAL EU/ml: plasma + 0.5 ng/ml LPS, incubation 60 min, 37° C.
Protocol: (§1) 9 blood-sampling tubes (each measuring 9 ml) spiked with 5 IU heparin are removed from a donor. The plasma is centrifuged off and the cell pellet incubated on a roll mixer. The plasma is spiked with endotoxin (LPS) and used for batch test I:
LPS: Pseudomonas aeruginosa (L-7018 company Sigma batch: 128K4115, −70° C., at 100 μl 10−3 g/ml (1 mg/ml))
(§2) The LPS is used in the batch with a final concentration 0.5 ng/ml. The tests are carried out in 3 ml pyrogen-free glass vials. In batch test I, different PMB concentrations (company. Sigma, P-1004) are added in the duplicate approach and are incubated for 60 min on an overhead shaker at 37° C. (see Table 3.5).
(§3) In batch test 1, PMB concentrations with 0 (without PMB), 10, 100, 250, 500 and 1000 ng/ml are used. Sterile PMB solutions (autoclaved pyrogen-free at 121° C., 90 min) are produced for this purpose with the following concentrations (Table 3.3):
(§4) The endotoxins are measured in the form of EU/ml with the aid of a Limulus Amebocyte Lysate test (LAL) by Charles River.

[3] = tested on: LPS (L-7018 Pseud. aerug.); assay: PMB desorption over time: LPS inactivation by PMB-coated HPR10 in plasma (LAL test); type: biochemical, Pseudomonas aeruginosa; conditions: PMB-coated HPR10 carrier, 1% in LPS-spiked plasma (5 ng/ml), 37° C.
Protocol: The PMB solution (Sigma, 10 mg/ml in dist. water) is autoclaved at 121° C. for 30 min, and the carrier (HPR10) is then coated in 15 ml Greiner tubes with PMB as follows (see Table 10.2): 3 ml carrier with 7.5 ml PMB solution
The coating is carried out overnight on a roll mixer at room temperature. The coated carrier is then washed twice with 10 ml NaCl solution (sterile), and a 50% suspension is produced. A tube without adsorber was included as control.
The plasma with 5 IU heparin is spiked with 5 ng/ml LPS (L-7018 Pseud. aerug. company Sigma batch: 128K4115). In the triplicate approach, 1% PMB-coated carrier is incubated with the LPS-spiked plasma (30 μl carrier+2970 μl LPS spiked plasma) at 37° C. in an overhead shaker and samples were taken at intervals (5, 15 and 60 min) for LAL analysis.
The analysis was performed using an LAL test.

[4] = tested on: blood cells; assay: Cytokine batch (batch test II): cytokine distribution by blood cells; type: cell-based; conditions: LPS (E. coli)-spiked plasma, 4 hours incubation
Protocol: The plasma spiked with LPS and PMB is fed back following batch test 1 to the cell concentrate obtained from the blood donor in the ratio 1:1 (see Table 3.5). For the cytokine batch, the samples from batch test I were used with a PMB concentration of 0 (without PMB), 250, 500 and 1000 ng/ml. As control, a sample without LPS and with 1000 ng/ml PMB was included. Following the incubation times of 4 h and 12 h at 37° C. on a roll mixer (5 revolutions/min), samples were taken, centrifuged off and 50 μl plasma were frozen at −80° C. for the subsequent cytokine quantification.

[5] = tested on: LPS E. coli; assay: Endotoxin batch (batch test I), LAL test, LPS from E. coli in plasma; type: biochemical; conditions: for LAL EU/ml: plasma + 0.5 ng/ml LPS, incubation 60 min, 37° C.
Protocol: as §1, §2, §3, §4

[6] = patient, specified example; cited from earlier work
[7] = PMB clearance (dialyser, depletion agent, patient) for dosing calculation; conditions: specified example
Excerpt: The following calculation example, besides the PMB patient clearance, also takes into consideration the clearance of a dialyser (dialysis filter) arranged in the extracorporeal blood circuit and the clearance of the carrier of the depletion agent. The calculation example presupposes an existing PMB serum concentration. This is provided by administration of a bolus prior to the start of the treatment, wherein the injection solutions described under Example 4 can be used for this purpose.
For the calculation of the dosing of polymyxin B via infusion in the extracorporeal blood circuit at a lipid feed point, the PMB clearance of the patient body, of the dialyser and of the depletion agent are taken into consideration: • The PMB dialysis clearance (CDial) can be determined experimentally and is dependent on the plasma flow and also on the dialysis filter type used. In the specified example, this is 60 ml/min. • The PMB clearance of the depletion agent (Cads) is dependent on the carrier material used and also on the filtrate flow.
The PMB total clearance (Ctotal) is given by addition from the individual PMB clearance rates. The resultant decrease of PMB is illustrated in FIG. 16. […]

[8] = PMB concentration in the plasma 50 to 300 ng/ml (0.05 to 0.3 μg/ml)

Substance	nephrotoxicity comparison (in words) [1]	LAL EU/ml ([2]; PMB 10 ng/ml)	LAL EU/ml ([2]; PMB 100 ng/ml)	LAL EU/ml ([2]; PMB 250 ng/ml)	LAL EU/ml ([2]; PMB 500 ng/ml)	LAL EU/ml ([2]; PMB 1000 ng/ml)	inhibition of LPS from Pseudomonas aeruginosa [2, 8]	LPS inactivation after 5 minutes compared with after 60 minutes of incubation [3]	inhibition of the cytokine distribution (TNF-alpha, IL-1beta, IL-6, IL-8) ([4]; very low PMB concentrations (250, 500, 1000 ng/ml))	inhibition of the key mediator TNF-alpha ([4]; very low PMB concentrations)	LAL EU/ml ([5]; PMB 10 ng/ml)	LAL EU/ml ([5]; PMB 100 ng/ml)	LAL EU/ml ([5]; PMB 250 ng/ml)	LAL EU/ml ([5]; PMB 500 ng/ml) [EU/ml]	LAL EU/ml ([5]; PMB 1000 ng/ml)	inhibition of LPS from E. coli [5, 8]	half-life for PMB [6] [h]	PMB clearance of the depletion agent (Cads) ([7]; dependent on carrier material and filtrate flow) [mL/min]	PMB dialysis clearance (CDial) ([7]; dependent on plasma flow and dialysis filter type) [mL/min]
Colistin	less nephrotoxic than polymyxin B																		
polymyxin B [PMB]		0.178 EU/ml and 0.167 EU/ml	0.112 EU/ml and 0.137 EU/ml	0.108 EU/ml and 0.123 EU/ml	0.091 EU/ml and 0.081 EU/ml	0.062 EU/ml and 0.061 EU/ml	strong inhibition	almost the same	strong inhibition	particularly pronounced	0.77 EU/ml and 0.871 EU/ml	0.379 EU/ml and 0.382 EU/ml	0.281 EU/ml and 0.29 EU/ml	0.209	0.154 EU/ml and 0.16 EU/ml	strong inhibition	13.6	45	60
